Experimental data published in paper PMC12592502, “Unraveling the mechanisms behind the enhanced efficacy of β-lactam-based sideromycins” (Communications Biology, 2025).
Several values for one entry are separate records, joined by “and”; a condition that tells them apart may be missing. Equal values may be shown once. Read-outs that look alike come from different tables or passages of the source.

Columns and labels:
[1] = target: T1, purified PBP3 of P. aeruginosa (PaPBP3) (Pseudomonas aeruginosa, UniProt G3XD46); experiment: biochemical; format: binding
T1 construct: (residues 53 to 579) from P. aeruginosa ATCC 27853 (PaPBP3); His6 (C); made in house; host or cells: E. coli BL21 DE3
T1 sequence (G3XD46 53-579): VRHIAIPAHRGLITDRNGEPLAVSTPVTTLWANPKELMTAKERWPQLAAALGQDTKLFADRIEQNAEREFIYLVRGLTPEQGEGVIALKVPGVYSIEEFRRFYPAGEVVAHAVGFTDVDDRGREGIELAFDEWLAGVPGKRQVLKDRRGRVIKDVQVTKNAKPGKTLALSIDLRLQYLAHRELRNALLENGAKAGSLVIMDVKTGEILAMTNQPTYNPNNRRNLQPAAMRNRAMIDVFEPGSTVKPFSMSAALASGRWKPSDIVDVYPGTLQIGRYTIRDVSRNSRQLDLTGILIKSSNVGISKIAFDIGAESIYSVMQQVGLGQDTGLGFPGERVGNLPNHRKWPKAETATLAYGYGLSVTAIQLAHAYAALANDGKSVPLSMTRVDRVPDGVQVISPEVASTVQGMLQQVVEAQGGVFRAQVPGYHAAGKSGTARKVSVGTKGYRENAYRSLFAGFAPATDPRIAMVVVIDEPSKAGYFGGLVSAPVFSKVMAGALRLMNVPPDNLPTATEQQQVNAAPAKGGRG
Description: The PBP binding assay was done as described previously[36],[56],[57]. For each antibiotic concentration tested, a quantity of 25 to 40 μg of membrane preparation was used as the source of PBPs, depending on the species. For the purified PaPBP3, 150 ng was used in the assay. First, increasing concentrations of the test antibiotic was added to the membrane or purified PaPBP3 preparations and incubated for 10 min at 30 °C. The reporter molecule Bocillin FL was then added at 12.5 μM for the membrane PBPs preparations and at 500 nM for the pure PaPBP3 samples for an additional 20 min at 30 °C. All reactions were stopped with the addition of the Laemmli-loading buffer (Bio-Rad) containing fresh β-mercaptoethanol (Sigma). All reactions were then heated at 100°C for 3 min before migration on SDS-polyacrylamide discontinuous gel system (7.5% stacking and 10% separating). Control samples without Bocillin FL were also included to highlight autofluorescent proteins that are not PBPs.
To be able to visualize labeled PBPs after electrophoresis, gels were rinsed in water and fixed in a solution of 50% methanol and 7% acetic acid for 30 min. The fluorescent images of gels were obtained with the Typhoon FLA 9500 instrument (GE-Healthcare Bio-Sciences Inc., Baie-d’Urfé, QC, CA) using a 473 nm excitation wavelength. To obtain quantifiable data, the software Quantity One 1D analysis was used (version 4.6.6; Bio-Rad Laboratories, Richmond, CA). The volume (intensity × constant area) of each PBP was measured. […] All IC50 data were obtained from at least two independent PBP binding assays using two different sets of compound concentrations using a linear regression.

[2] = target: OXA-98 (Acinetobacter baumannii, UniProt D0C7W4); experiment: biochemical; set-up: species or system A. baumannii ATCC 19606
Sequence of OXA-98 (D0C7W4 entry or part of it): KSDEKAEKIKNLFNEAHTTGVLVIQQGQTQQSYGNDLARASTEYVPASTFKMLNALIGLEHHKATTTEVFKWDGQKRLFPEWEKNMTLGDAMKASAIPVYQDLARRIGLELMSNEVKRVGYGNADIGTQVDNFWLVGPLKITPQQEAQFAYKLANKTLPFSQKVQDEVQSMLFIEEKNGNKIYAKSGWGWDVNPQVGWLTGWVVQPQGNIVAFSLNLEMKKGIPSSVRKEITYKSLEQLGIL
Description: Enzyme concentrations were 20 nM for AmpC and SHV-1, and 50 nM for OXA-98. Quartz cuvette (FireflySci Inc., Northport, NY) with 1 cm length path and 2 mm inside width was used with an Ultrospec 2100 Pro (Biochrom, Harvard Bioscience Inc., USA) to acquire the kinetic measures. […] The following extinction coefficients (Δε) and wavelengths (λ) were used:
The steady-state parameters (Km and Kcat) were determined by plotting the initial velocity against substrate concentrations (Michaelis–Menten curve). The Kcat was measured using the Vmax (μM/sec) divided by the total enzyme concentration and the catalytic efficiency was further calculated (Kcat/Km). SHV-1 parameters were determined with three Michaelis–Menten curves of at least seven substrate concentrations, while OXA-98 and AmpC were duplicates of curves of at least seven substrate concentrations. […] Initial velocities were measured at room temperature (25 °C). The Vmax and Km were calculated using least squares fit regression in GraphPad version 10.2.2. Ki was measured using a derivative of IC50 with an adaptation of the Cheng–Prusoff equation[55]. […] The corrected Ki was calculated using this formula: Kicorrected=Ki(observed)/1+S/KmNCF

[3] = tested on: E. coli MC4100; experiment: Bactericidal effect in the uptake assay (CFU counts); format: cell-based, Escherichia coli; conditions: for dCFU (Δlog10 CFU/mL, count with drug minus growth control): time 0 h, single replicates; for dCFU (Δlog10 CFU/mL, count with drug minus growth control) / bacterial inhibition, less than the control without antibiotic: 200 μM drug; for bacterial inhibition, less than the control without antibiotic: 4-h time point, MHBCA, inoculum 8.5 log10 CFU/mL
Source text: The bactericidal effect determined at each time point was the difference in the concentration of bacteria in the assay tube with antibiotic and that measured in the growth control tube without drug (ΔLog10 CFU/mL). The normal distribution of the data was verified with the Shapiro–Wilk test and the statistical analysis was a comparison of repeated measures ANOVA (*p ≤ 0.05, **p ≤ 0.01, ***p ≤ 0.001) between each time point relatively to the 0-h time point.

[4] = Antibiotic stability in medium without bacteria
Source text: This method used ultra-performance liquid chromatography-mass spectrometry (UPLC-MS) to measure the amount of test antibiotics remaining in bacterial culture supernatants over time as a means to measure antibiotic uptake by bacterial cells. The method assumes that all antibiotic molecules in the medium (i.e., those that we measured by UPLC-MS) are not bound to the PBP targets in the periplasm, whereas it is assumed that the bactericidal effect (ΔCFU/mL) is correlated to antibiotic uptake and binding to PBPs. The test strain E. coli MC4100 was cultivated overnight in 10 mL of MHBCA or ID-MHBCA at 37 °C with shaking (200 rpm). The next day, the overnight culture was diluted in fresh preheated medium to obtain an OD600 of ~0.7 in MHBCA or ID-MHBCA. The culture was further diluted 1:2 in MHBCA or ID-MHBCA (growth controls), or in MHBCA or ID-MHBCA containing the freshly prepared test antibiotic (2 × the final concentration) to obtain an initial OD600 of ~0.35 (corresponding to 8.5 log10 CFU/mL) and 200 μM of antibiotic (final concentration). Antibiotics were also added to preheated MHBCA or ID-MHBCA without bacteria to control for the stability of the molecules in the medium over time. The moment bacteria were put in contact with the test antibiotic corresponded to the first time point (0 h). For each time point thereafter, 200 μL of sample from both assay and stability test tubes were retrieved and centrifuged at 4 °C for 5 min at 8000 × g. All supernatants were filtered (0.2 μm) and flash frozen in liquid nitrogen for transport. After melting, 2 μL of the samples were injected in the UPLC-MS before the analysis. In parallel, 20 μL of assay and growth control tubes were serially diluted in 96-well plates. Ten μL of each dilution was spotted on TSA plates and incubated for 24 h at 37 °C for CFU counting.
For analysis, the determined concentration in the supernatant was adjusted for the degradation of the molecules measured in the stability control tests for each time point. The final net antibiotic concentration in the medium was calculated at each time point by adding the concentration caused by degradation to the concentration of the test antibiotic measured in the assay tubes containing bacteria. […] A second control was added for the β-lactam LOR and CEF to verify the impact of metabolic waste on the stability of the molecules. The supernatant from the 4-h growth control without antibiotic was collected by filtration 0.2 µm. LOR and CEF were then added to the filtrated supernatant at 200 µM, and degradation was measured after 3 h.

[5] = 150 ng PaPBP3, 500 nM Bocillin FL, n = 3, read-out: IC50 PaPBP3 purified

Structure (SMILES)	IC50 [1, 5] [nM]	IC50 ratio βL/SID-βL, PaPBP3 purified [1]	dCFU (Δlog10 CFU/mL, count with drug minus growth control) ([3]; ID FALSE (MHBCA))	dCFU (Δlog10 CFU/mL, count with drug minus growth control) ([3]; ID TRUE (ID-MHBCA))	hydrolysis by OXA-98 [2]	percentage of antibiotic degradation ([4]; 2 h, ID-MHBCA)	percentage of antibiotic degradation ([4]; 2 h, MHBCA) [%]	percentage of antibiotic degradation ([4]; 4 h, ID-MHBCA) [%]	percentage of antibiotic degradation ([4]; 4 h, MHBCA) [%]	percentage of antibiotic degradation ([4]; 6 h, ID-MHBCA) [%]	percentage of antibiotic degradation ([4]; 6 h, MHBCA) [%]	percentage of antibiotic degradation ([4]; 8 h, ID-MHBCA) [%]	percentage of antibiotic degradation ([4]; 8 h, MHBCA) [%]	percentage of antibiotic degradation ([4]; 10 h, ID-MHBCA) [%]	percentage of antibiotic degradation ([4]; 10 h, MHBCA) [%]	percentage of antibiotic degradation ([4]; 24 h, ID-MHBCA) [%]	percentage of antibiotic degradation ([4]; 24 h, MHBCA) [%]	bacterial inhibition, less than the control without antibiotic [3]	further results
CC1(C)S[C@@H]2[C@H](NC(=O)[C@H](N)c3ccccc3)C(=O)N2[C@H]1C(=O)O [AMP, ampicillin, reference compound]																			IC50 [1]: 74 ± 29 nM
CC1(C)SC2C(NC(=O)C(NC(=O)CN(CCCCNC(=O)c3cccc(O)c3O)C(=O)c3cccc(O)c3O)c3ccccc3)C(=O)N2C1C(=O)O (centres unmarked) [BAMP, bis-catechol (azotochelin)-ampicillin]	76 ± 31	0.97																	Ki [2]: 499000 ± 4000 nM
O=C(CCC(=O)N(CCCCNC(=O)c1cccc(O)c1O)CCCNC(=O)c1cccc(O)c1O)NCCCCCN(O)C(=O)CCCC(=O)NC(C(=O)NC1C(=O)N2C(C(=O)O)=C(Cl)CSC12)c1ccccc1 (centres unmarked) [MCEF, mixed ligand bis-catechol-mono-hydroxamate-cefaclor]			0.157 and -0.07022 and 0.01569 and -0.00717	0.0557 and -0.2291 and -0.2621	No hydrolysis	5%	12	18	25	22	29	31	41	29	38	43	54		
N[C@@H](C(=O)N[C@@H]1C(=O)N2C(C(=O)O)=C(Cl)CC[C@H]12)c1ccccc1 [LOR, loracarbef, reference compound]	8600 ± 3600		0.02669 and 0.4114 and -0.0313	-0.2509 and -0.1259 and -0.06378	No hydrolysis													~ 1.2 log10 CFU/mL	percentage of antibiotic degradation [4]: NDD
N[C@@H](C(=O)N[C@@H]1C(=O)N2C(C(=O)O)=C(Cl)CS[C@H]12)c1ccccc1 [CEF, cefaclor, reference compound]			0.07784 and -0.144 and -0.0313	-0.00308 and -0.2509 and -0.2737	No hydrolysis														percentage of antibiotic degradation ([4]; 2 h, 200 μM): 14%
O=C(CN(CCCCNC(=O)c1cccc(O)c1O)C(=O)c1cccc(O)c1O)NC(C(=O)NC1C(=O)N2C(C(=O)O)=C(Cl)CCC12)c1ccccc1 (centres unmarked) [BLOR, bis-catechol (azotochelin)-loracarbef]	380 ± 70	23	0.04788 and 0.3837 and 0.3931	-0.2509 and -0.1259 and 0.08749 and -0.2979 and -0.04259	No hydrolysis	NDD	6	3	15	6	15	14	26	9	22	14	28	~ 1.2 log10 CFU/mL	dCFU ([3]; ID FALSE (MHBCA), time 8 h): -3.459; dCFU ([3]; ID FALSE (MHBCA), time 10 h): -3.652; dCFU ([3]; ID FALSE (MHBCA), time 24 h): -3.754
